The source of these data is patent publication US9012648B2, “Haptens of risperidone and paliperidone” (Janssen Pharmaceutica NV, priority 2012, dated 2015).

Where “and” joins values, the source holds several entries; their conditions need not be identical. Equal entries are not always repeated.

One experiment relates to hybridoma subclone 2A5. In words: Competition ELISA, hybridoma subclone 2A5 supernatant (FIG. 3). It counts as binding, mouse. Here is the method: Supernatants were also tested by competition ELISA to determine if the signals were specific to either risperidone or paliperidone. […] In this competitive format as show in FIG. 4, a low level of analyte (risperidone) results in high signal, whereas a high level of analyte (risperidone) results in low signal. The amount of risperidone in the sample can be calculated from the loss of fluorescence compared to a control sample with no drug present.

Experiment [1] in a line: ELISA reactivity of hybridoma supernatants, Ag = Bt-Compound#1 (second TABLE 1). The format is binding, mouse. On the technique in general: In an ELISA, binding on a coated surface is turned into a signal by an enzyme label.
[2] abbreviates: Dilution 10800, duplicate wells.

In the case of `Cc1nc2n(c(=O)c1CCN1CCC(c3noc4cc(F)ccc34)CC1)CCCC2` [risperidone], the “competition ELISA reactivity (in words)” value in the experiment with hybridoma subclone 2A5 is “reactivity”.
Turning to “2-(2,5-dioxo-2,5-dihydro-1H-pyrrol-1-yl)-N-(2-((3-(1-(2-(9-hydroxy-2-methyl-4-oxo-6,7,8,9-tetrahydro-4H-pyrido[1,2-a]pyrimidin-3-yl)ethyl)piperidin-4-yl)benzo[d]isoxazol-6-yl)oxy)ethyl)acetamide-keyhole limpet hemocyanin-conjugate [Example 5]”, the ELISA reactivity was 3.2897 and 3.1103 in experiment [1] (Dilution 400, duplicate wells); 1.4605 and 1.4817 in experiment [1] (Dilution 1200, duplicate wells); 0.4617 and 0.4159 in experiment [1] (Dilution 3600, duplicate wells); 0.1149 and 0.1127 in experiment [1] (setting [2]).
For `Cc1nc2n(c(=O)c1CCN1CCC(c3noc4cc(OCCN)ccc34)CC1)CCCC2O` (stereo not shown) [Example 1, 3-(2-(4-(6-(2-aminoethoxy)benzo[d]isoxazol-3-yl)piperidin-1-yl)ethyl)-9-hydroxy-2-methyl-6,7,8,9-tetrahydro-4H-pyrido[1,2-a]pyrimidin-4-one], the ELISA reactivity in experiment [1] (Dilution 400, duplicate wells) was 3.2562 and 3.1217; in experiment [1] (Dilution 1200, duplicate wells) it was 1.3591 and 1.2607; in experiment [1] (Dilution 3600, duplicate wells), 0.3745 and 0.3281; in experiment [1] (setting [2]), 0.0918 and 0.0879.
In the case of `Cc1nc2n(c(=O)c1CCN1CCC(c3noc4cc(F)ccc34)CC1)CCCC2O` (stereo not shown) [paliperidone], the “competition ELISA reactivity (in words)” value with hybridoma subclone 2A5 is given as “reactivity”.
